Drawing on patent publication US12364752B2, “Methods of enhancing immunogenicity of poorly immunogenic antigen-specific vaccines using oral yeast beta-glucans” (priority 2018, dated 2025), this text covers dose-limiting toxicity, maximal tolerated dose and tumor growth suppressed for 2 substances.

One data set concerns neuroblastoma. As to the kind of experiment: Phase I trial of GD2/GD3 bivalent vaccine with oral beta-glucan. Conditions: at 150 μg/m^2 s.c. with bivalent vaccine.
For data set [1] the following is noted: Livingston et al. 1994; cited from earlier work.
The next data set concerns Ramos tumor cells. As to the kind of experiment: Ramos xenografts in SCID mice, Rituxan plus oral botanical adjuvants. The format is in vivo. Conditions: Rituxan alone at 5 μg dose.

Description for Ramos tumor cells: SCID mice (Jackson Lab, Bar Harbor ME) were first implanted subcutaneously in the flank area with Ramos tumor cells (a human lymphoma cell line; Pagel et al., Blood 108:328-36 (2006)) freshly harvested from culture and suspended in 100 μl matrigel (BD Biosciences, Billerica MA). When small palpable tumors started to appear (6-8 mm size), mice were randomly separated into treatment groups of 5 mice each. Mice were then given either oral botanical adjuvant, intravenous Rituxan mAb, or oral botanical adjuvant plus Rituxan mAb for 3 weeks. MAb was given twice a week through the tail vein. 2 mg of the tested botanical adjuvant (20 mg/ml solution or suspension in LPS-free water) was given by intragastric injection for 5 times a week. Tumor sizes (length and width) were measured twice a week with calipers. Mice were sacrificed when tumors were larger than 20 mm in length. For each botanical adjuvant, two endpoints were obtained: (1) positive anti-tumor effect [defined as statistically different from control group (treated with antibody alone)] and (2) anti-tumor index defined as (Mean tumor growth rate in mice treated with antibody alone)/(Mean tumor growth rate in mice treated with botanical adjuvant+antibody).
Description for neuroblastoma: Patients with neuroblastoma in ≥2nd complete/very good partial remission received vaccine subcutaneously (at weeks 1, 2, 3, 8, 20, 32 and 52). The bivalent vaccine contained 30 μg each of GD2 and GD3 stabilized as lactones and conjugated to the immunologic carrier protein keyhole limpet hemocyanin (KLH); and OPT-821, which was dose escalated as 50, 75, 100, and 150 μg/m^2 per s.c. injection. Oral beta-glucan administration (40 mg/kg/day, 14 days on/14 days off x 12 cycles) was started at week 6 (FIG. 14).

For QS21, the dose-limiting toxicity entry in the data set on neuroblastoma was “no dose-limiting toxicity”. Besides, in data set [1], the maximal tolerated dose is 20 µg.
With Rituxan: rituximab mAb, the tumor growth suppressed with Ramos tumor cells came out at 30%.
